What was measured:
[1] = biological target: T1, glycine binding site of the NMDA receptor channel (Rattus norvegicus, UniProt P35439); experiment: Receptor binding (glycine binding site of the NMDA receptor channel), (3H)-MDL 105.519 displacement on brain membrane homogenates; conditions: for Displacement (%, 10 μmol/l): displacement of (3H)-MDL 105.519 at 10 μmol/l of substance; for Ki: rat cortex/hippocampus membranes, 1 nmol/l (3H)-MDL 105.519, mean of 3 independent experiments
T1 construct: from tissue; host or cells: rat brain cortex and hippocampus membrane homogenate (male Wistar rats)
Description: Receptor binding (glycine binding site of the NMDA receptor channel)
The tests for determining the affinity of the compounds of formula I according to the invention for the glycine binding site of the NMDA receptor channel were carried out on brain membrane homogenates (homogenate of the cortex and hippocampus areas of the brain of male rats, Wistar strain) [B. M. Baron, B. W. Siegel, B. L. Harrison, R. S. Gross, C. Hawes and P. Towers, Journal Of Pharmacology and Experimental Therapeutics, vol. 279, p. 62, 1996].
For this purpose, the cortex and hippocampus were freed without cutting from freshly removed rat brains, homogenized in 5 mmol/l TRIS acetate buffer, 0.32 mol/l sucrose, pH 7.4 (10 ml/g of fresh weight), using a Potter homogenizer (Braun/Melsungen, 10 piston strokes at 500 rpm), with ice cooling, and then centrifuged for 10 minutes at 1000 g and 4° C. The first supernatant was collected and the sediment was homogenized again with 5 mmol/l TRIS acetate buffer, 0.32 mol/l sucrose, pH 7.4 (5 ml/g of original fresh weight), using the Potter homogenizer (10 piston strokes at 500 rpm), with ice cooling, and centrifuged for 10 minutes at 1000 g and 4° C. The resulting supernatant was combined with the supernatant from the first centrifugation and centrifuged at 17,000 g for 20 minutes at 4° C. The supernatant after this centrifugation was discarded and the membrane sediment was taken up with 5 mmol/l TRIS acetate buffer, pH 8.0 (20 ml/g of original fresh weight), and homogenized with 10 piston strokes at 500 rpm.
The membrane homogenate was then incubated for 1 hour at 4° C. and centrifuged for 30 minutes at 50,000 g and 4° C. The supernatant was discarded and the centrifuge tube containing the membrane sediment was sealed with Parafilm and frozen for 24 hours at −20° C. On the following day the membrane sediment was thawed, taken up with ice-cold 5 mmol/l TRIS acetate buffer, 0.1% saponin (w/v), pH 7.0 (10 ml/g of original fresh weight), homogenized with 10 piston strokes at 500 rpm and then centrifuged for 20 minutes at 50,000 g and 4° C. The resulting supernatant was discarded and the sediment was taken up in a small volume with 5 mmol/l TRIS acetate buffer, pH 7.0 (approximately 2 ml/g of original fresh weight), and homogenized again with 10 piston strokes at 500 rpm. After determination of the protein content, the membrane homogenate was adjusted to a protein concentration of 10 mg protein/ml with 5 mmol/l TRIS acetate buffer, pH 7.0, and frozen in aliquots until tested.
For the receptor binding test, aliquots were thawed, diluted to 1:10 with 5 mmol/l TRIS acetate buffer, pH 7.0, homogenized with 10 piston strokes at 500 rpm using the Potter homogenizer (10 piston strokes at 500 rpm), with ice cooling, and centrifuged for 60 minutes at 55,000 g and 4° C. […]
In the binding test, 50 mmol/l TRIS acetate buffer, pH 7.0, was used as the buffer and 1 nmol/l (^3H)-MDL 105.519 (B. M. Baron et al., 1996) was used as the radioactive ligand. The proportion of non-specific binding was determined in the presence of 1 mmol/l glycine.
In other preparations the compounds according to the invention were added in concentration series and the displacement of the radioactive ligand from its specific binding to the glycine binding site of the NMDA receptor channel was measured. […]

[2] = system: AMPA receptor channels; experiment: AMPA-induced ionic fluxes on RNA-injected Xenopus oocytes (two-electrode voltage clamp); type: cell-based, rat; conditions: 10 μmol/l compound, AMPA 100 μmol/l, n = 2
[3] = system: formalin-induced nociception; experiment: Formalin test on the rat (second phase); type: in vivo; conditions: late phase
Description: The experiments for determining the antinociceptive action of the compounds of formula I according to the invention were performed in the formalin test on male rats (Sprague-Dawley, 150-170 g).
In the formalin test a distinction is made between the first (early) phase (0-15 min after the formalin injection) and the second (late) phase (15-60 min after the formalin injection) (D. Dubuisson, S. G. Dennis, Pain, 4, 161-174 (1977)). The early phase represents a model for acute pain as a direct reaction to the formalin injection, while the late phase is regarded as a model for persistent (chronic) pain (T. J. Coderre, J. Katz, A. L. Vaccarino, R. Melzack, Pain, vol. 52, p. 259, 1993). […]
A single subcutaneous formalin injection (50 μl, 5%) in the dorsal side of the right back paw of free-moving experimental animals induced a nociceptive reaction which is represented by the following behavioral parameters: lifting and holding of the affected paw (score 1), shaking or twitching (score 2), licking and biting (score 3). The differing modes of behavior triggered by the formalin injection were recorded continuously by observing the animals in the late phase of the formalin test, and differently weighted in an evaluation. Normal behavior, where the animal distributes its weight evenly over all four paws, was recorded as a score of 0. […]

Displacement (%, 10 μmol/l) [1] [%] | Ki [1] [µM] | SMILES | AMPA-induced ionic fluxes Inhibition at 10 μmol/l of the compounds according to the invention [2] | % inhibition of the formalin-induced nociception ([3]; i.p., 21.5 mg/kg) [%] | % inhibition of the formalin-induced nociception ([3]; i.v., 68.1 mg/kg) [%]
100 | 0.3 | O=C(O)C1Nc2ccc(Cl)cc2C2C=CCC12 (centres unmarked) [Example 2, 8-Chloro-3a,4,5,9b-tetrahydro-3H-cyclopenta [c]quinoline-4-carboxylic acid] | – | – | –
– | – | O=C(O)C1Nc2cc(Cl)cc(Cl)c2C2C=CCC12 (centres unmarked) [Example 1, 7,9-Dichloro-3a,4,5,9b-tetrahydro-3H-cyclopenta [c]quinoline-4-carboxylic acid] | 5.4% (n = 2) | 64.5 | –
97 | – | O=C([O-])C1Nc2cc(Cl)cc(Cl)c2C2CCCC12.[Na+] (centres unmarked) [Example 54, 7,9-Dichloro-2,3,3a,4,5,9b-hexahydro-1H-cyclopenta [c]quinoline-4-carboxylate; sodium salt] | – | – | –
90 | 0.35 | O=C([O-])C1Nc2cc(Cl)cc(Cl)c2C2C=CCC12.[Na+] (centres unmarked) [Example 55, 7,9-Dichloro-3a,4,5,9b-tetrahydro-3H-cyclopenta [c]quinoline-4-carboxylate; sodium salt] | – | – | 56

Reference: patent US20040224969A1, “Salts of substituted 1,2,3,4-tetrahydroquinoline-2-carboxylic acid compounds” (Gruenenthal GmbH, priority 2001, published 2004)
